Data published in patent publication US9790378B2, “Vapor source using solutions of precursors in terpenes” (President and Fellows of Harvard College, priority 2010, dated 2017).

Procedure: [drawing 8] was dissolved in alloocimene.
Examples 1 and 2 were repeated except that dodecane was used as a solvent in place of alloocimene or farnesenes.
[drawing 9] is dissolved in mixed isomers of farnesene.
[drawing 10] is dissolved in mixed isomers of farnesenes.
[drawing 11] is dissolved in mixed isomers of farnesenes.
[drawing 12] is dissolved in alloocimene.
[drawing 13] is dissolved in mixed isomers of farnesene.

Solubility (in words), high:
bis(N,N′-diisopropylpentamidinato)manganese(II)
tris(N,N′-diisopropylacetamidinato)yttrium(III)
bis(N,N′-diisopropylacetamidinato)cobalt(II)
copper(I) (N,N′-di-sec-butylacetamidinate)
tris(N,N′-diisopropylformamidinato)lanthanum(III)
